Experiment [1] addresses LAP activity in feces. Briefly: Fecal LAP Activity (Specific Fecal Enzyme Method). Type of experiment: biochemical. As to conditions: pooled infant fecal suspension, pH 7.2, 25° C.; read-out: IC50 Specific Fecal Enzyme Methods LAP. The text has this: The following is a general description of a method for obtaining a sample of feces suitable for use in Fecal Protease Methods. However, one skilled in the art will be able to adapt the method to obtain appropriate samples of feces suitable for use in any of the Specific Fecal Protease Methods listed below (i.e., lipase, urease, and amylase) without undue experimentation.
Pooled infant feces (at least five different samples) are collected in a manner to keep them free of urine and contamination and mixed with water to obtain a weight by weight (w/w) mixture (e.g., 1:50 w/w). This mixture is then mixed thoroughly to obtain a homogeneous suspension by homogenization or sonication. […] (Also, to ensure complete linearity the final absorbance should never exceed 1.5 OD405 units). If the activity of the pooled infant feces is outside this range, it is not possible to accurately determine IC50 values for putative protease inhibitors. However, the range of enzyme activity may be adjusted by increasing or decreasing the dilution factor accordingly for each enzyme. If this is not possible, a different group of subjects should be used to obtain the sample pool.
To test the efficacy of protease inhibitors against LAP activity in feces, inhibitor and LAP buffer (50 mM sodium phosphate, pH 7.2) are added in a cuvette to obtain a final volume of 0.95 mL. To this mixture, 0.03 mL of substrate (6 mM L-Leucine-p-nitroanilide) is added to the cuvette. The cuvette is mixed by inversion and incubated at 25° C. for 5 minutes. A volume of 0.02 mL of fecal suspension is added to the cuvette, mixed and the absorbance at 405 nm minus the absorbance at 490 nm measured over 5 minutes at 25° C. The rate of substrate cleavage in the presence of inhibitor (vi) is the slope of a plot relating the excess absorbance (i.e., the absorbance at 405 nm minus the absorbance at 490 nm) versus time. The same procedure is repeated without the putative inhibitor. The rate of substrate cleavage in the absence of inhibitor (v) is the slope of a plot relating the excess absorbance versus time. The rates, vi and v, and the inhibitor concentration [I] are used to calculate IC50 according to the equation expressed above.

The target of experiment [2] is chymotrypsin activity in feces. The experiment can be described thus: Fecal Chymotrypsin Activity (Specific Fecal Enzyme Method). The format is biochemical. As to conditions: pooled infant fecal suspension, pH 7.6, 25° C.; read-out: IC50 Specific Fecal Enzyme Methods Chymotryp. The text has this:
The following is a general description of a method for obtaining a sample of feces suitable for use in Fecal Protease Methods. However, one skilled in the art will be able to adapt the method to obtain appropriate samples of feces suitable for use in any of the Specific Fecal Protease Methods listed below (i.e., lipase, urease, and amylase) without undue experimentation. […] Pooled infant feces (at least five different samples) are collected in a manner to keep them free of urine and contamination and mixed with water to obtain a weight by weight (w/w) mixture (e.g., 1:50 w/w). This mixture is then mixed thoroughly to obtain a homogeneous suspension by homogenization or sonication. […] (Also, to ensure complete linearity the final absorbance should never exceed 1.5 OD405 units). If the activity of the pooled infant feces is outside this range, it is not possible to accurately determine IC50 values for putative protease inhibitors. However, the range of enzyme activity may be adjusted by increasing or decreasing the dilution factor accordingly for each enzyme. If this is not possible, a different group of subjects should be used to obtain the sample pool. […] The cuvette is mixed by inversion and incubated at 25° C. for 5 minutes. […] The rate of substrate cleavage in the presence of inhibitor (vi) is the slope of a plot relating the excess absorbance (i.e., the absorbance at 405 nm minus the absorbance at 490 nm) versus time. The same procedure is repeated without the putative inhibitor. The rate of substrate cleavage in the absence of inhibitor (v) is the slope of a plot relating the excess absorbance versus time. The rates, vi and v, and the inhibitor concentration [I] are used to calculate IC50 according to the equation expressed above.

The record followed here is patent publication US6703536B2, “Disposable absorbent article having a skin care composition containing an enzyme inhibitor” (The Procter & Gamble Company, priority 1998, dated 2004).

Where a name gives a salt, the structure may show the parent alone. Square brackets hold non-standard residues; d marks the D form. Peptide text beside a SMILES is read from it. * marks the point of attachment. Sta = CC(C)C[C@H](N)[C@@H](O)CC(=O)O; Isovaleryl = CC(C)CC(=O)*

For orientation: IC50 means the concentration at which inhibition is half-maximal.

Consider `CC(C)C[C@H](NC(=O)[C@@H](NC(=O)N[C@@H](Cc1ccccc1)C(=O)O)[C@@H]1CCN=C(N)N1)C(=O)N[C@H](C=O)Cc1ccccc1` [Chymostatin], for which the figures for the half-inhibitory concentration (IC50) in experiment [1] and in experiment [2] were above 500 µM and 0.02 µM, respectively.

Take `CC1(C)[C@@H](O[C@H]2O[C@H](C(=O)O)[C@@H](O)[C@H](O)[C@H]2O[C@@H]2O[C@H](C(=O)O)[C@@H](O)[C@H](O)[C@H]2O)CC[C@]2(C)[C@H]3C(=O)C=C4[C@@H]5C[C@@](C)(C(=O)O)CC[C@]5(C)CC[C@@]4(C)[C@]3(C)CC[C@@H]12` [Glycyrrhizic Acid]: the IC50 in experiment [1] and in experiment [2] was above 300 µM in each case.

For `N=C(N)c1ccc(OCCCCCCOc2ccc(C(=N)N)cc2)cc1` [Hexamidine diisethionate], the half-inhibitory concentration (IC50) in experiment [1] was 130 µM; in experiment [2] it was above 1000 µM.

Consider `CC(=O)N[C@@H](CC(C)C)C(=O)N[C@@H](CC(C)C)C(=O)N[C@H](C=O)CCCNC(=N)N` [Leupeptin], for which the half-maximal inhibitory concentration (IC50) in experiment [1] and in experiment [2] was above 500 µM in each case.

Turning to `CC(C)CC(=O)N[C@H](C(=O)N[C@H](C(=O)N[C@@H](CC(C)C)[C@@H](O)CC(=O)N[C@@H](C)C(=O)N[C@@H](CC(C)C)[C@@H](O)CC(=O)O)C(C)C)C(C)C` [Pepstatin A] (Isovaleryl-VV[Sta]A[Sta]-OH), the concentration for half-maximal inhibition (IC50) in experiment [1] is above 500 µM; in experiment [2], 300 µM.

For the molecule `Cc1ccc(S(=O)(=O)N[C@@H](CCCCN)C(=O)CCl)cc1` [TLCK, L-1-chloro-3-[4-tosylamido]-7-amino-2-heptanone-HCl], the IC50 in experiment [1] and in experiment [2] was above 500 µM in each case.

In the case of `N=C(N)c1ccc(N)cc1` [p-Amino-benzamidine], the 50% inhibitory concentration (IC50) in experiment [1] and in experiment [2] was above 500 µM in each case.

Aprotinin: the half-maximal inhibitory concentration (IC50) is above 20 µM in experiment [1] and 0.22 µM in experiment [2].

B1: Soybean trypsin inhibitor: plant-derived trypsin inhibitor (protein, UniProt P01070 25-205, looked up)
Trypsin inhibitor A: DFVLDNEGNPLENGGTYYILSDITAFGGIRAAPTGNERCPLTVVQSRNELDKGIGTIISSPYRIRFIAEGHPLSLKFDSFAVIMLCVGIPTEWSVVEDLPEGPAVKIGENKDAMDGWFRLERVSDDEFNNYKLVFCPQQAEDDKCGDIGISIDHDDGTRRLVVSKNKPLVVQFQKLDKESL
For the molecule B1, the values for the IC50 in experiment [1] and in experiment [2] were above 20 µM and 0.06 µM, respectively.
